Experiments:
[1] = cited from earlier work
[2] = pH 7.4
[3] = test system: murine P388 leukemia; experiment: in vivo antitumor activity against murine P388 leukemia, ip qd 1-4; design: species or system mouse (BDF1 male mice); conditions: 10% Emulphor EL-620, 10% ethanol, 80% saline
Experimental: (§1) The toxicity and therapeutic effectiveness of the new compounds and active agents of the present invention are shown by in vitro assays and by in vivo evaluations in mice. The in vitro assays measure the growth inhibiting activity of the materials against the CCRF-CEM cell line in culture. The cell line was derived from the peripheral blood of a child with lymphoblastic leukemia as described by Foley et al., Cancer, Volume 18, page 522 et seq. (1965), and the assays were carried out by the procedure of Foley and Lazarus, Biochem. Pharmacol., Volume 16, pages 659 et seq. (1967), the results being reported in terms of the dose in micromoles per liter required to inhibit growth of the cultures by 50% relative to control cultures to which no drug had been added (ID50). The in vivo evaluations were made by preparing a 0.2 to 0.7% by weight solution of the active agent in a formulation consisting of 10% by volume of each polyethoxylated castor oil and ethanol in saline and injecting the dosage intraperitoneally. The evaluations were made of the antitumor activity against the murine P388 and murine L1210 leukemias in BDF1 male mice according to standard National Cancer Institute protocols as set forth by Geran et al., Cancer Chemotherap. Rep., Part 3, Volume 3, pages 1 et seq. (1972) , except that a qd 1-4 schedule was used in place of qd 1-9 in order to conserve materials.
(§2) Optimal dosage was determined by testing doses which were at several multiples of 10 milligrams/kilogram of body weight. Some effectiveness can be observed at dosages ranging from 30 to 70 milligrams/kilogram of body weight, depending upon the particular compound employed.
The following table summarizes the in vivo antitumor activity of the same compounds as those in Table I, evaluated against murine P388 leukemia as described above. All compounds were administered intraperitoneally, adriamycin in clinical formulation (1 part adriamycin plus 5 parts lactose, in 0.9% saline), the other compounds in 10% Emulphor EL-620, 10% ethanol, 80% isotonic saline.

[4] = test system: murine L1210 leukemia; experiment: in vivo antitumor activity against L1210 leukemia, ip days 1-4; design: species or system mouse (BDF1 male mice); conditions: 10% Emulphor EL-620, 10% ethanol, 80% isotonic saline
Experimental: as §1, §2
All compounds were administered intraperitoneally; in tests (1) and (2), the compounds were in 10% Emulphor EL-620, 10% ethanol, and 80% isotonic saline. In test (3) the compound was in aqueous buffer containing monobasic potassium phosphate and sodium hydroxide (0.05 M), pH 7.40: […]

[5] = test system: CCRF-CEM cells; experiment: growth inhibition of CCRF-CEM cell line in culture; type: cell-based; conditions: Homo sapiens; CCRF-CEM cells, in vitro; read-out: ID50 (dose required to inhibit growth of the cultures by 50% relative to control)
Description: The in vitro assays measure the growth inhibiting activity of the materials against the CCRF-CEM cell line in culture. […] The in vivo evaluations were made by preparing a 0.2 to 0.7% by weight solution of the active agent in a formulation consisting of 10% by volume of each polyethoxylated castor oil and ethanol in saline and injecting the dosage intraperitoneally. The evaluations were made of the antitumor activity against the murine P388 and murine L1210 leukemias in BDF1 male mice according to standard National Cancer Institute protocols as set forth by Geran et al., Cancer Chemotherap. Rep., Part 3, Volume 3, pages 1 et seq.

[6] = cited from earlier work; remark: listed apart in the source
[7] = animals and human clinical tests

Question: For `CCCCC(=O)OCC(=O)C1(O)Cc2c(O)c3c(c(O)c2C(OC2CC(NC(=O)C(F)(F)F)C(O)C(C)O2)C1)C(=O)c1c(OC)cccc1C3=O` (stereo not shown) [N-Trifluoroacetyladriamycin-14-valerate], which water solubility [1] is on record?
Answer: The water solubility was “essentially water-insoluble”.

Question: What about the “solubility in water (in words)” value [2] of the same compound?
Answer: The value was “a few micrograms”.

Question: And the “% ILS (percent increase in life span relative to untreated controls)” value ([3]; each dose 20.0 mg/kg ip)?
Answer: Its value is 281%.

Question: And the “No. alive on d 30” value ([3]; each dose 20.0 mg/kg ip)?
Answer: The value was 5/7.

Question: What about the “No. alive on d 60” value ([3]; each dose 20.0 mg/kg ip) of the same compound?
Answer: Its value is 3/7.

Question: And the “Survival, Median day of death (range)” value ([3]; each dose 20.0 mg/kg ip)?
Answer: The value was 42.0 (21-42) day.

Question: And the “No. alive on d 30” value ([3]; each dose 30.0 mg/kg ip)?
Answer: The value was 4/7.

Question: What about the “No. alive on d 60” value ([3]; each dose 30.0 mg/kg ip) of the same compound?
Answer: Its value is 4/7.

Question: What about the “Survival, day of death (range only, no median)” value ([3]; each dose 30.0 mg/kg ip) of the same compound?
Answer: The value was 21 to 26 days.

Question: What about the “No. alive on d 30” value ([3]; each dose 40.0 mg/kg ip) of the same compound?
Answer: Its value is 6/7.

Question: And the “No. alive on d 60” value ([3]; each dose 40.0 mg/kg ip)?
Answer: The value was 6/7.

Question: What about the “Survival, day of death (range only, no median)” value ([3]; each dose 40.0 mg/kg ip) of the same compound?
Answer: The value was 30,71 day.

Question: And the “% ILS (percent increase in life span relative to untreated controls)” value ([3]; each dose 50.0 mg/kg ip)?
Answer: The value was 763%.

Question: What about the “No. alive on d 30” value ([3]; each dose 50.0 mg/kg ip) of the same compound?
Answer: The value was 5/7.

Question: What about the “No. alive on d 60” value ([3]; each dose 50.0 mg/kg ip) of the same compound?
Answer: Its value is 5/7.

Question: What about the “Survival, Median day of death (range)” value ([3]; each dose 50.0 mg/kg ip) of the same compound?
Answer: The value was 95.0 (24-95) day.

Question: What about the “% ILS (percent increase in life span relative to untreated controls)” value ([3]; each dose 60.0 mg/kg ip) of the same compound?
Answer: Its value is 718%.

Question: What about the “No. alive on d 30” value ([3]; each dose 60.0 mg/kg ip) of the same compound?
Answer: The value was 5/7.

Question: What about the “No. alive on d 60” value ([3]; each dose 60.0 mg/kg ip) of the same compound?
Answer: The value was 5/7.

Question: What about the “Survival, Median day of death (range)” value ([3]; each dose 60.0 mg/kg ip) of the same compound?
Answer: Its value is 90.0 (9-90) day.

Question: And the “% ILS (percent median increase in life span relative to untreated controls, calculated as of day 50)” value ([4]; 50.0 mg/kg/d × 4 ip)?
Answer: Its value is > 456%.

Question: And the “No. alive on d 50” value ([4]; 50.0 mg/kg/d × 4 ip)?
Answer: The value was 5/7.

Question: What about the “% ILS (percent median increase in life span relative to untreated controls, calculated as of day 50)” value ([4]; 60.0 mg/kg/d × 4 ip) of the same compound?
Answer: The value was > 456%.

Question: And the “No. alive on d 50” value ([4]; 60.0 mg/kg/d × 4 ip)?
Answer: The value was 6/7.

Question: And the IC50 [5]?
Answer: The IC50 was 0.24 µM.

Question: What about the “cardiotoxicity relative to parent drug” value [6, 7] of the same compound?
Answer: The value was “significantly less cardiotoxic than the parent drug”.

Question: And the “toxicity in general relative to parent drug” value [6, 7]?
Answer: Its value is “less toxic in general”.

Question: And the “therapeutic effect relative to adriamycin and daunomycin” value ([6]; human, in vivo)?
Answer: Its value is “therapeutically superior to adriamycin and to daunomycin”.
